ChEMBL document CHEMBL5678818, “Discovery of potent SOS1 inhibitors that block RAS activation via disruption of the RAS-SOS1 interaction” (Proc Natl Acad Sci U S A, 2019)

Experiments:
[1] = target: Tyrosine-protein kinase receptor UFO (Homo sapiens) (UniProt P30530); assay: Inhibition of AXL (unknown origin) assessed as residual activity at 100 nM by KINOMEscan analysis relative to control
[2] = target: T1, Cyclin-dependent kinase-like 5 (Homo sapiens) (UniProt O76039); assay: Inhibition of CDKL5 (unknown origin) assessed as residual activity at 100 nM by KINOMEscan analysis relative to control
T1 sequence (whole entry): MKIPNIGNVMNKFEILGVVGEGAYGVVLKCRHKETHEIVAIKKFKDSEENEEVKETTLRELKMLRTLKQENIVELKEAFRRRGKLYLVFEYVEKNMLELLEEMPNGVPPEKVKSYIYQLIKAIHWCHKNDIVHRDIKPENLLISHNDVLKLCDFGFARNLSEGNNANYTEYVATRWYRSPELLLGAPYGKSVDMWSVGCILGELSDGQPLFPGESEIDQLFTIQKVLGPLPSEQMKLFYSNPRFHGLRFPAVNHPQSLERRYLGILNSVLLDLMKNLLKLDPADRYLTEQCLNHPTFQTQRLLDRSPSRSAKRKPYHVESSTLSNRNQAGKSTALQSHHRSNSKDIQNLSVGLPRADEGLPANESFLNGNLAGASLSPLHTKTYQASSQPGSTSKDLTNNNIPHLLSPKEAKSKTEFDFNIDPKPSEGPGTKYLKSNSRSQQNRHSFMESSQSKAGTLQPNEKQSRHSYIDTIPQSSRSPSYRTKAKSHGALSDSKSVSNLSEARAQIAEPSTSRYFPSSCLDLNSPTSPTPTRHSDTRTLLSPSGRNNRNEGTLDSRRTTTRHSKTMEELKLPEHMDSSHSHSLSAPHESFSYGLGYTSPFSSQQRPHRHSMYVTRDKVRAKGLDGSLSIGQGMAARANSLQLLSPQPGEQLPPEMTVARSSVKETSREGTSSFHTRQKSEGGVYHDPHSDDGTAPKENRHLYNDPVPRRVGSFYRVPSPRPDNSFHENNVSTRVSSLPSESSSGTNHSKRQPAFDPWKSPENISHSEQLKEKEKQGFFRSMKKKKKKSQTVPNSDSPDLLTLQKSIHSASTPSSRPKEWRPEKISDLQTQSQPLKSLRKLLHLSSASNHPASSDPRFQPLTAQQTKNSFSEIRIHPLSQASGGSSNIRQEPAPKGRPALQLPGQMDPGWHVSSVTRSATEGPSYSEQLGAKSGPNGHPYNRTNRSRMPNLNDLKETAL

[3] = target: Serine/threonine-protein kinase/endoribonuclease IRE1 (Homo sapiens) (UniProt O75460); assay: Inhibition of ERN1 (unknown origin) assessed as residual activity at 100 nM by KINOMEscan analysis relative to control
[4] = target: Mitogen-activated protein kinase kinase kinase 11 (Homo sapiens) (UniProt Q16584); assay: Inhibition of MLK3 (unknown origin) assessed as residual activity at 100 nM by KINOMEscan analysis relative to control
[5] = target: Serine/threonine-protein kinase tousled-like 2 (Homo sapiens) (UniProt Q86UE8); assay: Inhibition of TLK2 (unknown origin) assessed as residual activity at 100 nM by KINOMEscan analysis relative to control
[6] = target: T2, Mitogen-activated protein kinase kinase kinase 13 (Homo sapiens) (UniProt O43283); assay: Inhibition of LZK (unknown origin) assessed as residual activity at 1000 nM by KINOMEscan analysis relative to control
T2 sequence (whole entry): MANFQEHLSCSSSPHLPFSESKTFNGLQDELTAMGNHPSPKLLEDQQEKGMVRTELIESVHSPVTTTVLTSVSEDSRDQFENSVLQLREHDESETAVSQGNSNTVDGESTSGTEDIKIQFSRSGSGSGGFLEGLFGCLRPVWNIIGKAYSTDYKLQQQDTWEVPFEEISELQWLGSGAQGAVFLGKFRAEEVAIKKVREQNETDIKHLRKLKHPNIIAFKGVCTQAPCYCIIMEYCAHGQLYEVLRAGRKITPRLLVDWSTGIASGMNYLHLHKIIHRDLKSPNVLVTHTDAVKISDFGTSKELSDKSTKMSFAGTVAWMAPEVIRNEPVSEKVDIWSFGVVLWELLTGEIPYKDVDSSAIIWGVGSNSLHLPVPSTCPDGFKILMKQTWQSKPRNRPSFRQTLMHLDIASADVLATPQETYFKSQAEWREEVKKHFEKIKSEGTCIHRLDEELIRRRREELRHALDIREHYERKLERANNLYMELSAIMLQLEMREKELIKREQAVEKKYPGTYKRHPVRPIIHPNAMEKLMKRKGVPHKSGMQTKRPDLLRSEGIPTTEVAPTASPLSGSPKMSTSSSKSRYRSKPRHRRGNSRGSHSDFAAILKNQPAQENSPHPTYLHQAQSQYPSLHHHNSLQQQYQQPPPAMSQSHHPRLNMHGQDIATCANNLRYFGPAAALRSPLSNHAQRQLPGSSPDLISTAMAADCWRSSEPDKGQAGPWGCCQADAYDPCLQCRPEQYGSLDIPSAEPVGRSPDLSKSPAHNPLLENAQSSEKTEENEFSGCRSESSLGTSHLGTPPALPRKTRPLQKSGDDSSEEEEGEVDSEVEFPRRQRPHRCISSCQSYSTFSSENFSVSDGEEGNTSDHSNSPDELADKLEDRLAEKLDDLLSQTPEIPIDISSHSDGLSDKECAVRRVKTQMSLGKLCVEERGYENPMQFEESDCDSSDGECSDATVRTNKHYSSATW

Serine/threonine-protein kinase tousled-like 2 (Homo sapiens), sequence (Q86UE8 whole entry, looked up): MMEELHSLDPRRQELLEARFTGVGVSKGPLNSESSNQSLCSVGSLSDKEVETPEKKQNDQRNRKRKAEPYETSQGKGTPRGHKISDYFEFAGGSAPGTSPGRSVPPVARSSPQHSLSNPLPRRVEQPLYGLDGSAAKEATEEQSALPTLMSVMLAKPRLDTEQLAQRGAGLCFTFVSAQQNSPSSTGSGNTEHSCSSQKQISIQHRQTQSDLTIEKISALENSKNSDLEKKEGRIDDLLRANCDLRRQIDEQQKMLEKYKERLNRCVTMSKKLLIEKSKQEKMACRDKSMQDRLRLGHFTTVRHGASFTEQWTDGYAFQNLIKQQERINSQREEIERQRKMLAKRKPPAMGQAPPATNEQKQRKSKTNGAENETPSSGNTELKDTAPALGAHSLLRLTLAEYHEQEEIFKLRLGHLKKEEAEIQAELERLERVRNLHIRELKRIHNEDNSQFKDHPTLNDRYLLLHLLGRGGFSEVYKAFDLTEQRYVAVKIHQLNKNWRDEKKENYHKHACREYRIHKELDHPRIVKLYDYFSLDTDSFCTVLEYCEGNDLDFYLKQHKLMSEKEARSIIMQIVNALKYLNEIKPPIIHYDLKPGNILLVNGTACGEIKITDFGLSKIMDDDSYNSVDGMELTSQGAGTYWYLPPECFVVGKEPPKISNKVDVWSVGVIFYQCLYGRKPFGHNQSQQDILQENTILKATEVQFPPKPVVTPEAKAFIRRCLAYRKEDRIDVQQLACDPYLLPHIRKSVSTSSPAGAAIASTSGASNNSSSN
Tyrosine-protein kinase receptor UFO (Homo sapiens), sequence (P30530 whole entry): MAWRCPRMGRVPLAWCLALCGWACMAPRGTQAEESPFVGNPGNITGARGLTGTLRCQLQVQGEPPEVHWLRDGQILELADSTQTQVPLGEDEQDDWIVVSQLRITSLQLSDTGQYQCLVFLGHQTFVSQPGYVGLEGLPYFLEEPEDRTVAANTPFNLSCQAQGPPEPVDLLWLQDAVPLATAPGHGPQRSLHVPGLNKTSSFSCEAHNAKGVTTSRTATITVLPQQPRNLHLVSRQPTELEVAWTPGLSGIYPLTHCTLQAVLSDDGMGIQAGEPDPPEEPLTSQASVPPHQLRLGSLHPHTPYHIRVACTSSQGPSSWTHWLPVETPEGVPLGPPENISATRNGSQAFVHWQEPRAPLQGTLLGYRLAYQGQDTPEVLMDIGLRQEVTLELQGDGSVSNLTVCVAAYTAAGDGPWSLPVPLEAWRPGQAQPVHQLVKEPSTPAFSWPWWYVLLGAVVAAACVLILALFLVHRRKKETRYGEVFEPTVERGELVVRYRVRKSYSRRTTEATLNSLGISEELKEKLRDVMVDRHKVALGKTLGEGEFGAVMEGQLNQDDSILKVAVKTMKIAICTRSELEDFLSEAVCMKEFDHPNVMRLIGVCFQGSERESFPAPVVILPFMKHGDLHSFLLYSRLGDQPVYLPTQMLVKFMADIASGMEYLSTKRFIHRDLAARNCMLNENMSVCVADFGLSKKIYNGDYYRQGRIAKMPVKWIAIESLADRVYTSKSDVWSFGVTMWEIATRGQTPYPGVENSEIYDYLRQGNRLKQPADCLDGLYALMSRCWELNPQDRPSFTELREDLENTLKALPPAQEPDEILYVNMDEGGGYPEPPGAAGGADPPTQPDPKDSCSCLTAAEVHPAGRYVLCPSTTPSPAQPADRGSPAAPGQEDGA
Mitogen-activated protein kinase kinase kinase 11 (Homo sapiens), sequence (Q16584 whole entry, looked up): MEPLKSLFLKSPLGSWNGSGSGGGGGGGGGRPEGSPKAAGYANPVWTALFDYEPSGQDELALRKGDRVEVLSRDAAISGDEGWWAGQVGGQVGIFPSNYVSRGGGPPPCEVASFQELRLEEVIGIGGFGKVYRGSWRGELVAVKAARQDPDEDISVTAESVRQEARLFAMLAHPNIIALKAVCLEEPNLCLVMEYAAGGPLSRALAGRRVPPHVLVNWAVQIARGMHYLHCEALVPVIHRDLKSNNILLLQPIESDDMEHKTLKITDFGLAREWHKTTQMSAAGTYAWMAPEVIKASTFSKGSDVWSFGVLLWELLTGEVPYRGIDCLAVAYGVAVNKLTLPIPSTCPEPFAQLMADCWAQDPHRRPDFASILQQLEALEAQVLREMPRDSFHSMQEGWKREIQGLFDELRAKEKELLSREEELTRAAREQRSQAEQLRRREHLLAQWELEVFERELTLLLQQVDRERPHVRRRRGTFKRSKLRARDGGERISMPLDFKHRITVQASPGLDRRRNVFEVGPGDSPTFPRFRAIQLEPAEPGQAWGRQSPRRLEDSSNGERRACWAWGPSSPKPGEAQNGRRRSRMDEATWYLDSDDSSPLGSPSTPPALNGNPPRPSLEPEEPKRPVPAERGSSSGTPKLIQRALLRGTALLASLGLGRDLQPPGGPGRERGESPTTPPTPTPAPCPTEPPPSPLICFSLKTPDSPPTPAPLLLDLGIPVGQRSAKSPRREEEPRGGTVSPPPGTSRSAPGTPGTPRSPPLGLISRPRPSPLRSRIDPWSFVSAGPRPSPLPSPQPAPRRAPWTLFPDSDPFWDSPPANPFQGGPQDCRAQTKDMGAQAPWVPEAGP
Serine/threonine-protein kinase/endoribonuclease IRE1 (Homo sapiens), sequence (O75460 19-977 limits assumed): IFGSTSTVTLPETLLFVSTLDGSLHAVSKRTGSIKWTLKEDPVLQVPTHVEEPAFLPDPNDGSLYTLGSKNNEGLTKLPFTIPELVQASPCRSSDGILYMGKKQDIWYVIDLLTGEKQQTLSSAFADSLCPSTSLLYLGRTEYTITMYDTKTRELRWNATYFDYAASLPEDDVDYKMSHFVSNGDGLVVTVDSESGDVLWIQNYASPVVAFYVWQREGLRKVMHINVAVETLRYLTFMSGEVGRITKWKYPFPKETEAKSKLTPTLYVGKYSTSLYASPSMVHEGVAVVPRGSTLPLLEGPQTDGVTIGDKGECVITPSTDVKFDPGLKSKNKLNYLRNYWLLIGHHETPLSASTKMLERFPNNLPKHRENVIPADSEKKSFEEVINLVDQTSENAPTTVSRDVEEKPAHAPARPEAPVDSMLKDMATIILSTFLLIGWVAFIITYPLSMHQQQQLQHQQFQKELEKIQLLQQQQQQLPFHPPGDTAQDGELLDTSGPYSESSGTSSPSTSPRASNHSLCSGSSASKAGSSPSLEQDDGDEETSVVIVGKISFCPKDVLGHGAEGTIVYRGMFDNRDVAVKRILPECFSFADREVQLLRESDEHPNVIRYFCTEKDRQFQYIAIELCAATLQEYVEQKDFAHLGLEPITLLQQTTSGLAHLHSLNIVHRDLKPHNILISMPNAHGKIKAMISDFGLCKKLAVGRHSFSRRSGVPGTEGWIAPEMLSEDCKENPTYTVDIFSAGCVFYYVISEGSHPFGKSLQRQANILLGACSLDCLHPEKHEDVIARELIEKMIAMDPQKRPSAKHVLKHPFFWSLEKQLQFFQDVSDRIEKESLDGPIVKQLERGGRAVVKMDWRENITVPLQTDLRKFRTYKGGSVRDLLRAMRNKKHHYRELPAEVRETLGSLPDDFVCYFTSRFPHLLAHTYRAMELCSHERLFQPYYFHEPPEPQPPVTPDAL

SMILES | Activity [1] | Activity [2] | Activity [3] | Activity [4] | Activity [5] | Activity [6]
COc1cc2ncnc(N[C@H](C)c3cccc4ccccc34)c2cc1OC | 86% | 96% | 96% | 100% | 91% | 99%
COc1cc2nc(C)nc(N[C@H](C)c3cccc(-c4cn[nH]c4)c3)c2cc1OC | – | – | – | – | – | 94%
